Calls of active or inactive are those of the source.
How the values were obtained:
Protein RecA = molecular target: T1, Protein RecA (Mycobacterium tuberculosis, UniProt P9WHJ3); experiment: Fluorescence Cell-Free Homogeneous Dose Retest to Identify Inhibitors of RecA-Intein Splicing Activity. [Related pubchem assays (depositor defined):AID2097, AID2223, AID489010, AID492950]; type: functional
T1 sequence (P9WHJ3 whole entry): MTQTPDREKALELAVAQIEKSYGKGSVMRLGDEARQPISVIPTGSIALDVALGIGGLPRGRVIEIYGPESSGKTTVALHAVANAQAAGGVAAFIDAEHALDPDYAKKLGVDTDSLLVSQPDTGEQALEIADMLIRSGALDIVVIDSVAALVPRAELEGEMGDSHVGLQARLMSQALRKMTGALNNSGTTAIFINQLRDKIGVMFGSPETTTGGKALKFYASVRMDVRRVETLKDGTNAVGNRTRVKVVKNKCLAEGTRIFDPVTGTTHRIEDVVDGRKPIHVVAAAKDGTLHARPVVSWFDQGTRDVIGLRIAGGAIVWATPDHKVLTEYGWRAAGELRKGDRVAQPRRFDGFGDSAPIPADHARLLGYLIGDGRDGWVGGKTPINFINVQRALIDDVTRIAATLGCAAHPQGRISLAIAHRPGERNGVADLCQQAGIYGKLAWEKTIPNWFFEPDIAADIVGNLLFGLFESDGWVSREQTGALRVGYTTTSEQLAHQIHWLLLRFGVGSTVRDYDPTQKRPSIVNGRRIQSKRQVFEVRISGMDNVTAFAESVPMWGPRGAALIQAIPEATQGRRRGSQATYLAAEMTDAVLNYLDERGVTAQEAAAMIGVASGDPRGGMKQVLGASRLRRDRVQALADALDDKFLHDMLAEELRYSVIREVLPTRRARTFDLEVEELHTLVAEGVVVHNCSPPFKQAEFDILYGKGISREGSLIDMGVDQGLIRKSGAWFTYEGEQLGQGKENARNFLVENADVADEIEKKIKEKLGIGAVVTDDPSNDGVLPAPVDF

[1] = NIH-3T3 fibroblast cytotoxicity, dose response, cytotoxicity control, cell-based, fluorescence, Alamar Blue, secondary assay (AID 2327); type: functional;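 also: NIH-3T3 mouse fibroblasts cultured with fluconazole at 8 µg/mL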
[2] = fluconazole-exposed Candida albicans growth modulators – fluorescence, retest, confirmation (AID 2467); type: functional, cell-based
[3] = tested on: Streptococcus sp. 'group A'; experiment: Streptococcus pyogenes SK(-)GAS viability under kanamycin – luminescence, BacTiterGlo, confirmation, counter-screen for streptokinase expression inhibitor project, dose response (AID 1900); type: functional, organism-based
Streptococcus = experiment: GAS UMAA2166 growth inhibition – luminescence, BacTiterGlo, counter-screen for streptokinase expression inhibitor project, dose response (AID 1915); type: functional, organism-based;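 also: potency for reduction of bacterial viability or growth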
[4] = Luminescence Cell-Based Dose Retest to Confirm Inhibitors of Cancer Stem Cells. [Related pubchem assays (depositor defined):AID2717, AID2721]; type: functional; settings: Homo sapiens
Cytochrome P450 3A4 = Cytochrome P450 3A4 (Homo sapiens, UniProt P08684);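 also: CYP3A4 tested as one member of a cytochrome P450 panel screen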
Streptokinase A = molecular target: T2, Streptokinase A (Streptococcus pyogenes serotype M1, UniProt P10520); experiment: viability-normalized secreted streptokinase activity reduction – plasminogen activation absorbance, OD405, dose response (AID 1914); type: functional, Streptococcus pyogenes M1 GAS;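 also: secreted streptokinase activity via plasminogen activation per viability signal from cell pellet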
T2 sequence (P10520 whole entry): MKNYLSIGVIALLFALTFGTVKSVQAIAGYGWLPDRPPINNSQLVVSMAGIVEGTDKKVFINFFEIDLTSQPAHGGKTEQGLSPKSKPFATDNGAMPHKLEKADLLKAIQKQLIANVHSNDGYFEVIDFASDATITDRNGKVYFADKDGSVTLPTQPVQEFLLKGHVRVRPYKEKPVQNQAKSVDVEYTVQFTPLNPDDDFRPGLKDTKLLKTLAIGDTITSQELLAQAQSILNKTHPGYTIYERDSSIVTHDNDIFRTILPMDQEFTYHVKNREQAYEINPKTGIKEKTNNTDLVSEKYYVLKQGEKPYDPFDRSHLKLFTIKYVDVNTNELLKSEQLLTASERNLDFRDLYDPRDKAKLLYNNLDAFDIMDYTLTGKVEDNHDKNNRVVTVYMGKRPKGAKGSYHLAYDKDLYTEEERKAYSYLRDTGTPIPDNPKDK

Cytochrome P450 2C19 = Cytochrome P450 2C19 (Homo sapiens, UniProt P33261); experiment: Cytochrome panel assay with activity outcomes. Panel member name: p450-cyp2c19 Compounds with AC50 equal or less than 10 uM are considered active; type: functional; settings: read-out: AC50
[5] = Trypanosoma cruzi growth suppression in host cells – NIH3T3 host cells, beta-gal luminescence, confirmation (AID 2044); type: functional, cell-based;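 also: intracellular parasites grown in NIH/3T3 mouse fibroblasts as host cells; luminescent beta-galactosidase reporter signal from transgenic T. cruzi replicating inside host cells; inhibitors lower the luminescence signal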
[6] = NIH3T3 cell viability loss – ATP luminescence, mouse fibroblasts, counter-screen, dose response (AID 2010); type: functional, cell-based;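 also: cells exposed to compound for about 90 hours before reading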
INS1 = experiment: INS-1E survival protection against cytokine death – cell-based, luminescence, retest, dose response (AID 449756); type: functional; settings: Rattus norvegicus;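 also: cell death triggered by IL-1 beta plus TNF-alpha plus IFN-gamma mixture; protective hits raise ATP signal compared with cytokine alone wells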
Cytochrome P450 1A2 = molecular target: T3, Cytochrome P450 1A2 (Homo sapiens, UniProt P05177);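 also: PubChem cytochrome P450 panel assay, CYP1A2 panel member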
T3 sequence (P05177 whole entry): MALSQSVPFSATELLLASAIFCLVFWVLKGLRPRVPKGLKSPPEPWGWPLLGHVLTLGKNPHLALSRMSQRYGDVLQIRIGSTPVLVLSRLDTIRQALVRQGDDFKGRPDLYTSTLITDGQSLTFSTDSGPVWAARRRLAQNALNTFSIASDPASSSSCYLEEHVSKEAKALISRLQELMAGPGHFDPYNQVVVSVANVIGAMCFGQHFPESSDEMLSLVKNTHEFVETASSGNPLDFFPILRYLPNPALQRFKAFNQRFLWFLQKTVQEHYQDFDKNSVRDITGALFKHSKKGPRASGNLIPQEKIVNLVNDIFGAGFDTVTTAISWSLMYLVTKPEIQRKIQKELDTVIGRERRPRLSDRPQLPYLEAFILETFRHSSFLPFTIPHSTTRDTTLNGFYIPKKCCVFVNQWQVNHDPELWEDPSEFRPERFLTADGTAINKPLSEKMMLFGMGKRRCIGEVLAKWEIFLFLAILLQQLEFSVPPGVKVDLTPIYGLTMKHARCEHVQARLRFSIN

[7] = viability of uninfected HEp-2 cells – cell-based, HTS, cytotoxicity control for RSV inhibitor project, dose response (AID 2410); type: functional; settings: human respiratory syncytial virus

Chain of Cytochrome P450 3A4 (P08684 whole entry): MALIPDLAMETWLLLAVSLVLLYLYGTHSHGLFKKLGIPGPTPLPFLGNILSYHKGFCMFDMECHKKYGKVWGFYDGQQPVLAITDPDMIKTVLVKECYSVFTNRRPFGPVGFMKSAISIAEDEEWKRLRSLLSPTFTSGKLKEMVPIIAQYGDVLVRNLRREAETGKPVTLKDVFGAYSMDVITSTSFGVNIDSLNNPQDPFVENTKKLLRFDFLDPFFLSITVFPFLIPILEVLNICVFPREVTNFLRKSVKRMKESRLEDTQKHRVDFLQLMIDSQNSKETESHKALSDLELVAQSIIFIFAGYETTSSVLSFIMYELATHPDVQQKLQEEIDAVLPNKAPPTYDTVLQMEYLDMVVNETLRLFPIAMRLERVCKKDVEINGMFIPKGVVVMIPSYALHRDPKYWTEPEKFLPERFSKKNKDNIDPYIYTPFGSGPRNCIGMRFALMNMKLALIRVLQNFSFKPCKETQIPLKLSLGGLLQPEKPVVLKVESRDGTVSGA
Chain of Cytochrome P450 2C19 (P33261 whole entry): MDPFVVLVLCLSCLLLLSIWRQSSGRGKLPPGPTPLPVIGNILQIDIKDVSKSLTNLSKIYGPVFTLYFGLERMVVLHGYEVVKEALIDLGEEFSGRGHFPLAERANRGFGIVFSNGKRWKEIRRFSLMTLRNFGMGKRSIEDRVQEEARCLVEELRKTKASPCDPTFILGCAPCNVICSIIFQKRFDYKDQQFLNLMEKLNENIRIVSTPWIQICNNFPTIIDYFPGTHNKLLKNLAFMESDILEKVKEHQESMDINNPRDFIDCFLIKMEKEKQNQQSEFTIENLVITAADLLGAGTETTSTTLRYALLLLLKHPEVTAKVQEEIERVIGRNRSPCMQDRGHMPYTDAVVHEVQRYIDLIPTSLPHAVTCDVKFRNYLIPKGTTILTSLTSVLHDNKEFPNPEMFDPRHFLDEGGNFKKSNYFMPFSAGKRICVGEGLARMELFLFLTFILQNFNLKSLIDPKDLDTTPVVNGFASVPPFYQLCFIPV

CC1=NN(c2cccc(Cl)c2)C(=O)C12CC(C)=C(C)CS2 (stereo not drawn)
EC50 (Protein RecA): 13.2 µM (active)

O=C1NN(c2ccc(F)cc2)C(=O)/C1=C/c1cccs1
EC50 [1]: > 160 µM (inactive)
EC50 [2]: > 38 µM (not active)

COc1ccc(-c2csc(N(CC3CCCO3)C(=O)c3ccco3)n2)cc1 (stereo not drawn)
EC50 [1]: > 160 µM (inactive)
EC50 [2]: > 38 µM (not active)

O=C1NC[C@@H](Cc2cccc3ccccc23)N(CCCCC2CCCCC2)C1=O
EC50 [3]: 3.38 µM (active)
EC50 (Streptococcus): 7.07 µM (active)
AC50 [4]: 3.84 µM (active)

CCCC(=O)N1c2ccccc2C(N(C(C)=O)c2ccccc2)CC1C (stereo not drawn)
AC50 (Cytochrome P450 3A4): 0.891 µM (inconclusive)

O=C1CCCC=C1[C@H](CCc1ccccc1)OC(=O)c1ccc(Br)cc1
AC50 (Cytochrome P450 3A4): 5.01 µM (inconclusive)

O=C(NC(=S)Nc1cccc(-c2ccc(CO)o2)c1)c1cccs1
EC50 [3]: 23.1 µM (active)
EC50 (Streptokinase A): > 150 µM (not active)
EC50 (Streptococcus): 68.4 µM (active)

O=C(Nc1ccc(F)cc1)N1CCCCCC1
EC50 [3]: > 150 µM (not active)
EC50 (Streptokinase A): > 150 µM (not active)
EC50 (Streptococcus): > 150 µM (not active)

COc1ccc(N2C(=O)NC3CC2(C)Oc2ccccc23)cc1OC (stereo not drawn)
AC50 (Cytochrome P450 2C19): 7.94 µM (inconclusive)
AC50 (Cytochrome P450 3A4): 22.4 µM (inconclusive)

COc1ccc(NC(=O)N2CCCC3(CCN(C(=O)c4cc(C(F)(F)F)cc(C(F)(F)F)c4)CC3)C2)cc1
AC50 (Cytochrome P450 3A4): 10 µM (inconclusive)

CCC(C)n1c(-c2cccs2)nc2nc3ccccc3nc21 (stereo not drawn)
AC50 [4]: 2.73 µM (active)

CSc1ccc(C2=CC(=O)C[C@H](c3ccc(Cl)cc3)C2)cc1
AC50 [4]: 1.7 µM (active)

CC(C)N=C(S)NC(c1ccccc1)(c1ccccc1)c1ccccc1
EC50 [3]: 6.6 µM (active)
EC50 [5]: 3.99 µM (active)
EC50 [6]: > 60 µM (not active)
EC50 (Streptococcus): > 150 µM (not active)
AC50 (INS1): 8.18 µM (active)

O=C(Nc1ccc(O)cc1)c1ccc(NC(=O)c2cccs2)cc1
AC50 [4]: 3.51 µM (active)

Cc1ccccc1-c1ccnc2[nH]n(-c3ccccc3)c(=O)c12
EC50 [1]: > 160 µM (inactive)
EC50 [2]: > 38 µM (not active)

COc1cc(/C=C(\C#N)c2ccccn2)ccc1OCC(=O)Nc1ccc(Br)cc1
AC50 [4]: 1.71 µM (active)

Cc1ccc(NC(S)=NC2CCCC2)cc1
AC50 (Cytochrome P450 3A4): 10 µM (inconclusive)

O=C(Nc1ccccc1)N1CC[C@@]2(CCCN(C(=O)c3ccncc3)C2)C1
AC50 (Cytochrome P450 3A4): 15.8 µM (inconclusive)

CCn1nnnc1NC(=O)c1cc(Cl)c(OC)c(Cl)c1
EC50 [1]: > 160 µM (inactive)
EC50 [2]: 2.51 µM (active)

CCc1c(C)sc2nc(C(C)C)nc(SCC(=O)N3CCc4ccccc4C3)c12
EC50 [3]: 9.77 µM (active)
EC50 (Streptokinase A): 2.38 µM (active)
EC50 (Streptococcus): 15.1 µM (active)
AC50 [4]: 4.63 µM (active)
AC50 (INS1): 1.94 µM (active)

O=c1c2cc(Br)ccc2nc(-c2ccccc2)n1O
EC50 [1]: 70.4 µM (active)
EC50 [2]: 1.99 µM (active)

COc1ccc(CNC(=O)Cc2csc(NC(=O)Nc3ccccc3OC)n2)cc1
EC50 [3]: > 150 µM (not active)
EC50 (Streptokinase A): > 150 µM (not active)
EC50 (Streptococcus): > 150 µM (not active)

COCc1ccc(O)c2ncccc12
AC50 (INS1): 5 µM (active)

COc1ccc(NC(=O)N2CCCC3(CCN(C(=O)c4cccc(F)c4)CC3)C2)cc1
AC50 (Cytochrome P450 3A4): 15.8 µM (inconclusive)

CC(COc1ccc(C(C)C)cc1)NC(=O)c1ccc(Br)o1 (stereo not drawn)
EC50 [3]: 45.6 µM (active)
EC50 (Streptokinase A): > 150 µM (not active)
EC50 (Streptococcus): > 150 µM (not active)

CC(C)C(=O)NC(c1ccccc1)c1cc([N+](=O)[O-])c2cccnc2c1O (stereo not drawn)
EC50 [3]: 2.12 µM (active)
EC50 (Streptokinase A): > 150 µM (not active)
EC50 (Streptococcus): 2.98 µM (active)
AC50 [4]: 1.27 µM (active)
AC50 (INS1): 6.59 µM (active)

Oc1ccc(Oc2ccc(Oc3ccc(O)cc3)cc2)cc1
EC50 [3]: 8.4 µM (active)
EC50 (Streptokinase A): > 150 µM (not active)
EC50 (Streptococcus): 18.4 µM (active)

CCCC(O)(c1ccc(Cl)cc1)C(CN1CCOCC1)c1ccc(Cl)cc1 (stereo not drawn)
AC50 [4]: 6 µM (active)

Cc1cc2nc(C3CCCN(C(S)=Nc4ccccc4)C3)[nH]c2cc1C (stereo not drawn)
AC50 (Cytochrome P450 2C19): 7.08 µM (inconclusive)
AC50 (Cytochrome P450 1A2): 1.58 µM (inconclusive)
AC50 (Cytochrome P450 3A4): 0.141 µM (inconclusive)

Cc1ccc(N=Nc2c(N)nn3c(O)c4c(nc23)CCCC4)cc1
AC50 (Cytochrome P450 3A4): 7.94 µM (inconclusive)

Cc1cc(OCc2nc(-c3ccc(NC(=O)c4cccnc4)cc3)no2)ccc1Cl
CC50 [7]: > 50 µM (active)
AC50 (INS1): 0.624 µM (active)

CCN=C(S)N1N=C2c3ccccc3CCC2C1c1ccc(F)cc1 (stereo not drawn)
AC50 [4]: 1.46 µM (active)

COc1ccc(CNc2cc(-c3ccccc3CN(C)C)ncn2)c(OC)c1
AC50 (Cytochrome P450 1A2): 15.8 µM (inconclusive)
AC50 (Cytochrome P450 3A4): 15.8 µM (inconclusive)

CCN(CC)CCN(C(=O)C1=COCCO1)c1nc2cc(C)cc(C)c2s1
EC50 [3]: > 150 µM (not active)
EC50 (Streptokinase A): > 150 µM (not active)
EC50 (Streptococcus): > 150 µM (not active)

NS(=O)(=O)Cc1noc2ccccc12
AC50 (Cytochrome P450 3A4): 31.6 µM (inconclusive)

O=C(CC1CC2CCC1C2)NCCc1ccc(Cl)cc1 (stereo not drawn)
AC50 (INS1): > 260 µM (inactive)

CC1(C)CC[C@]2(CO)CC[C@]3(C)C(=CCC4[C@@]5(C)CC[C@H](O)[C@@](C)(CO)C5CC[C@]43C)[C@@H]2C1 (stereo partly drawn)
AC50 [4]: 3.13 µM (active)

C/C(=N/NC(=O)c1cc(-c2ccccc2)nc2c(Cl)cccc12)c1cccnc1
EC50 [3]: > 150 µM (not active)
EC50 (Streptokinase A): 25.9 µM (inconclusive)
EC50 (Streptococcus): > 150 µM (not active)

Cc1[nH]n(-c2ccccc2)c(=O)c1/C=C1/C(=O)NN(c2ccc(F)cc2)C1=O
AC50 [4]: 4.08 µM (active)

COc1cc(/C=N/Nc2nc(Nc3ccccc3)nc(-n3nc(C)cc3C)n2)cc(OC)c1OC
EC50 [3]: 5.1 µM (active)
EC50 (Streptokinase A): > 150 µM (not active)
EC50 [5]: 0.737 µM (active)
EC50 [6]: 7.23 µM (active)
EC50 (Streptococcus): 13.8 µM (active)
AC50 [4]: 3.63 µM (active)

— ChEMBL document CHEMBL1201862, “PubChem BioAssay data set” (2004)
